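Tested at 5 concentrations; 48 h exposure; 96-well plates; endpoints linearly interpolated, else capped at highest concentration. Here, GI50 denotes the concentration required for 50% inhibition of growth.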 Active and inactive are the calls of the source. Cut-off read from the data, not from the text of the source: active = GI50 up to about 1.1 µM and inactive = higher.
How the values were obtained:
Assay in all cases: NCI-60 cell line screen, 48 h
SW-620 = system: SW-620
UACC-62 = system: UACC-62
OVCAR-3 = system: OVCAR-3
M14 = system: M14
SK-OV-3 = system: SK-OV-3
SNB-19 = system: SNB-19
COLO 205 = system: COLO 205
MDA-MB-435 = system: MDA-MB-435
HOP-62 = system: HOP-62
U-251 = system: U-251
T47D = system: T47D
NCI-H460 = system: NCI-H460
HCT-15 = system: HCT-15
MDA-MB-231 = system: MDA-MB-231
NCI-H23 = system: NCI-H23
A498 = system: A498
PC-3 = system: PC-3
EKVX = system: EKVX
TK-10 = system: TK-10
K562 = system: K562

SMILES	GI50 (SW-620)	GI50 (UACC-62)	GI50 (OVCAR-3)	GI50 (M14)	GI50 (SK-OV-3)	GI50 (SNB-19)	GI50 (COLO 205)	GI50 (MDA-MB-435)	GI50 (HOP-62)	GI50 (U-251)	GI50 (T47D)	GI50 (NCI-H460)	GI50 (HCT-15)	GI50 (MDA-MB-231)	GI50 (NCI-H23)	GI50 (A498)	GI50 (PC-3)	GI50 (EKVX)	GI50 (TK-10)	GI50 (K562)
c1csc(-c2ccc(-c3ccc(-c4cccs4)s3)s2)c1	> 100 µM (inactive)	> 100 µM (inactive)	> 100 µM (inactive)	> 100 µM (inactive)	> 100 µM (inactive)	> 100 µM (inactive)	> 100 µM (inactive)	> 100 µM (inactive)	> 100 µM (inactive)	> 100 µM (inactive)	> 100 µM (inactive)	> 100 µM (inactive)	> 100 µM	> 100 µM (inactive)	> 100 µM (inactive)	> 100 µM (inactive)	> 100 µM (inactive)	> 100 µM (inactive)	> 100 µM (inactive)	–
Cc1cc(C)c2c(c1)CC1(Cc3cc(C)c(C)cc3C1=O)C2=O (stereo unspecified)	95.7 µM (inactive)	> 100 µM (inactive)	> 100 µM (inactive)	27.7 µM (inactive)	–	> 100 µM (inactive)	> 100 µM (inactive)	3.82 µM (inactive)	–	> 100 µM (inactive)	> 100 µM (inactive)	> 100 µM (inactive)	> 100 µM	> 100 µM (inactive)	–	> 100 µM (inactive)	> 100 µM (inactive)	> 100 µM (inactive)	> 100 µM (inactive)	> 100 µM (inactive)
O=c1oc2cccnc2n1CCCCN1CCN(c2ccccc2)CC1	> 100 µM (inactive)	–	> 100 µM (inactive)	> 100 µM (inactive)	> 100 µM (inactive)	> 100 µM (inactive)	–	> 100 µM (inactive)	> 100 µM (inactive)	> 100 µM (inactive)	> 100 µM (inactive)	> 100 µM (inactive)	> 100 µM	> 100 µM (inactive)	> 100 µM (inactive)	> 100 µM (inactive)	> 100 µM (inactive)	> 100 µM (inactive)	> 100 µM (inactive)	> 100 µM (inactive)
c1ccc2c(c1)ccn2CCc1c[nH]c2ccccc12	> 10 µM (inactive)	> 10 µM (inactive)	> 10 µM (inactive)	> 10 µM (inactive)	> 10 µM (inactive)	> 10 µM (inactive)	> 10 µM (inactive)	> 10 µM (inactive)	> 10 µM (inactive)	> 10 µM (inactive)	> 10 µM (inactive)	> 10 µM (inactive)	> 10 µM	> 10 µM (inactive)	> 10 µM (inactive)	–	> 10 µM (inactive)	> 10 µM (inactive)	> 10 µM (inactive)	> 10 µM (inactive)
CC(C)=CCN1CC(C)C(=O)Nc2cc(Cl)ccc21 (stereo unspecified)	26.7 µM (inactive)	–	15.1 µM (inactive)	23.2 µM (inactive)	24.8 µM (inactive)	28.5 µM (inactive)	19.8 µM (inactive)	23.4 µM (inactive)	26.6 µM (inactive)	27.4 µM (inactive)	24.9 µM (inactive)	20.5 µM (inactive)	29.9 µM	22 µM (inactive)	21.6 µM (inactive)	33.3 µM (inactive)	18.6 µM (inactive)	26.2 µM (inactive)	19.3 µM (inactive)	96.8 µM (inactive)
Cc1ccc(-c2cc(N)n(-c3nc4c(c(=O)n(C)c(=O)n4C)n3C)n2)cc1	–	> 100 µM (inactive)	> 100 µM (inactive)	> 100 µM (inactive)	41 µM (inactive)	94.4 µM (inactive)	> 100 µM (inactive)	> 100 µM (inactive)	21.7 µM (inactive)	> 100 µM (inactive)	> 100 µM (inactive)	> 100 µM (inactive)	> 100 µM	> 100 µM (inactive)	67 µM (inactive)	> 100 µM (inactive)	> 100 µM (inactive)	62.2 µM (inactive)	> 100 µM (inactive)	> 100 µM (inactive)
C1=C(c2ccccc2)NC2=N[C@H]3CCCC[C@@H]3N2C1c1ccccc1 (stereo partly specified)	13.2 µM (inactive)	15 µM (inactive)	13.1 µM (inactive)	12.9 µM (inactive)	15.8 µM (inactive)	14.6 µM (inactive)	11 µM (inactive)	13.6 µM (inactive)	–	13.4 µM (inactive)	16.4 µM (inactive)	11 µM (inactive)	11.4 µM	15.8 µM (inactive)	12.7 µM (inactive)	16.4 µM (inactive)	11.4 µM (inactive)	14.4 µM (inactive)	10.4 µM (inactive)	5.15 µM (inactive)
COc1ccc(CC(=O)N2CCC3(C)CC(=O)CC=C23)cc1OC (stereo unspecified)	> 100 µM (inactive)	> 100 µM (inactive)	> 100 µM (inactive)	> 100 µM (inactive)	> 100 µM (inactive)	> 100 µM (inactive)	> 100 µM (inactive)	> 100 µM (inactive)	93.8 µM (inactive)	> 100 µM (inactive)	> 100 µM (inactive)	–	> 100 µM	> 100 µM (inactive)	> 100 µM (inactive)	> 100 µM (inactive)	> 100 µM (inactive)	> 100 µM (inactive)	< 0.01 µM (active)	> 100 µM (inactive)
C/C(=N\NC(N)=S)c1sc(-n2nc(-c3ccccc3)cc2-c2ccccc2)nc1C	> 100 µM (inactive)	> 100 µM (inactive)	98.2 µM (inactive)	> 100 µM (inactive)	62.1 µM (inactive)	> 100 µM (inactive)	> 100 µM (inactive)	> 100 µM (inactive)	> 100 µM (inactive)	> 100 µM (inactive)	23.2 µM (inactive)	> 100 µM (inactive)	94.4 µM	43.3 µM (inactive)	> 100 µM (inactive)	> 100 µM (inactive)	63.1 µM (inactive)	50.1 µM (inactive)	> 100 µM (inactive)	–
Cc1ccc(S(=O)(=O)NC(=O)NC(Cc2ccc(O)c(O)c2)C(=O)O)cc1 (stereo unspecified)	24.9 µM (inactive)	> 100 µM (inactive)	> 100 µM (inactive)	> 100 µM (inactive)	–	> 100 µM (inactive)	> 100 µM (inactive)	> 100 µM (inactive)	> 100 µM (inactive)	> 100 µM (inactive)	> 100 µM (inactive)	> 100 µM (inactive)	> 100 µM	> 100 µM (inactive)	> 100 µM (inactive)	> 100 µM (inactive)	> 100 µM (inactive)	> 100 µM (inactive)	> 100 µM (inactive)	37.1 µM (inactive)
O=C(NCCCN(CCCCN(CCCNC(=O)c1cc(S(=O)(=O)O)cc(O)c1O)C(=O)c1cc(S(=O)(=O)O)cc(O)c1O)C(=O)c1cc(S(=O)(=O)O)cc(O)c1O)c1cc(S(=O)(=O)O)cc(O)c1O	> 100 µM (inactive)	> 100 µM (inactive)	–	–	–	> 100 µM (inactive)	> 100 µM (inactive)	> 100 µM (inactive)	–	> 100 µM (inactive)	> 100 µM (inactive)	> 100 µM (inactive)	> 100 µM	> 100 µM (inactive)	> 100 µM (inactive)	> 100 µM (inactive)	> 100 µM (inactive)	–	> 100 µM (inactive)	> 100 µM (inactive)
O=c1[nH]c(=O)n(COCCO)cc1-c1ccccc1	> 100 µM (inactive)	> 100 µM (inactive)	> 100 µM (inactive)	> 100 µM (inactive)	> 100 µM (inactive)	> 100 µM (inactive)	> 100 µM (inactive)	> 100 µM (inactive)	> 100 µM (inactive)	> 100 µM (inactive)	> 100 µM (inactive)	> 100 µM (inactive)	> 100 µM	> 100 µM (inactive)	> 100 µM (inactive)	–	> 100 µM (inactive)	> 100 µM (inactive)	> 100 µM (inactive)	> 100 µM (inactive)
N#CC(C#N)=c1c(=O)c2c3ccccc3cc3cccc1c32	> 100 µM (inactive)	> 100 µM (inactive)	> 100 µM (inactive)	> 100 µM (inactive)	> 100 µM (inactive)	> 100 µM (inactive)	> 100 µM (inactive)	> 100 µM (inactive)	29 µM (inactive)	> 100 µM (inactive)	> 100 µM (inactive)	> 100 µM (inactive)	> 100 µM	> 100 µM (inactive)	> 100 µM (inactive)	> 100 µM (inactive)	55.7 µM (inactive)	–	–	–
COc1ccc2[nH]c3c(c2c1)CC(=S)N1CCCC(CC3=O)C1 (stereo unspecified)	52.7 µM (inactive)	39 µM (inactive)	45.8 µM (inactive)	45.9 µM (inactive)	90.8 µM (inactive)	35.6 µM (inactive)	31.3 µM (inactive)	46.3 µM (inactive)	87.3 µM (inactive)	33.3 µM (inactive)	48.9 µM (inactive)	31.8 µM (inactive)	57.7 µM	50.2 µM (inactive)	47.8 µM (inactive)	43.1 µM (inactive)	37.2 µM (inactive)	37.8 µM (inactive)	> 100 µM (inactive)	–
CNC(=O)c1cc2nc3ccccc3c(=O)n2c2ccccc12	> 10 µM (inactive)	> 10 µM (inactive)	> 10 µM (inactive)	> 10 µM (inactive)	> 10 µM (inactive)	> 10 µM (inactive)	> 10 µM (inactive)	> 10 µM (inactive)	> 10 µM (inactive)	> 10 µM (inactive)	> 10 µM (inactive)	–	> 10 µM	> 10 µM (inactive)	> 10 µM (inactive)	> 10 µM (inactive)	> 10 µM (inactive)	> 10 µM (inactive)	> 10 µM (inactive)	> 10 µM (inactive)

— ChEMBL document CHEMBL1201862, “PubChem BioAssay data set” (2004)
